Source: patent publication US9994551B2, “Pyridazine derivatives as RORc modulators” (Genentech, Inc., priority 2015, dated 2018)

Target: T1, RORc ligand binding domain (Homo sapiens, UniProt P51449)
T1 construct: host or cells: E. coli
T1 sequence (P51449 269-508 limits assumed): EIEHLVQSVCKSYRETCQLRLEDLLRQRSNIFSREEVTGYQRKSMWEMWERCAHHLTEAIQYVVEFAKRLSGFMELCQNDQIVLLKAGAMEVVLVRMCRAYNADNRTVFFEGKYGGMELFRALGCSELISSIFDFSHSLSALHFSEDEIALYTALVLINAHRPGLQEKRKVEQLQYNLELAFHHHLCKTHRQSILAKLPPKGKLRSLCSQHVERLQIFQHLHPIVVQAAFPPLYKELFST
Test: In vitro RORc ligand binding assay (25-[3H]hydroxycholesterol displacement, filter binding)

| IC50 | SMILES |
| --- | --- |
| 14 nM | CC[C@@H](O[C@@]12CC[C@@H](c3cc(-c4c(F)cccc4F)nnc31)C2(C)C)C(=O)O [Compound 111, (2R)-2-[[(1R,8S)-5-(2,6-difluorophenyl)-11,11-dimethyl-3,4-diazatricyclo[6.2.1.02,7]undeca-2,4,6-trien-1-yl]oxy]butanoic acid] |
| 37.7 nM | CNC(=O)N1CCO[C@H]([C@@]23CC[C@@H](c4cc(-c5c(F)cccc5F)nnc42)C3(C)C)C1 [Compound 69, (R)-2-((5R,8R)-3-(2,6-difluorophenyl)-9,9-dimethyl-5,6,7,8-tetrahydro-5,8-methanocinnolin-8-yl)-N-methylmorpholine-4-carboxamide] |
| 458 nM | CC1(C)[C@H]2CC[C@]1([C@@H]1CNCCO1)c1nnc(-c3c(F)cccc3F)cc12 [Compound 66, (R)-2-((5R,8R)-3-(2,6-difluorophenyl)-9,9-dimethyl-5,6,7,8-tetrahydro-5,8-methanocinnolin-8-yl)morpholine] |
| 2.8 nM | Cc1n[nH]c(N2CCC[C@H]([C@@]34CC[C@@H](c5cc(-c6c(F)cccc6F)nnc53)C4(C)C)C2)n1 [Compound 173, 5-(2,6-difluorophenyl)-11,11-dimethyl-1-[1-(3-methyl-1H-1,2,4-triazol-5-yl)-3-piperidyl]-3,4-diazatricyclo[6.2.1.02,7]undeca-2,4,6-triene] |
| 13 nM | Cc1n[nH]c(C(=O)N2CCO[C@@H]([C@@]34CC[C@@H](c5cc(-c6c(F)cccc6F)nnc53)C4(C)C)C2)n1 [Compound 117, [2-[5-(2,6-difluorophenyl)-11,11-dimethyl-3,4-diazatricyclo[6.2.1.02,7]undeca-2,4,6-trien-1-yl]morpholin-4-yl]-(3-methyl-1H-1,2,4-triazol-5-yl)methanone] |
| 120 nM | CC1(C)[C@H]2CC[C@]1(Oc1ccc(=O)[nH]c1)c1nnc(-c3c(F)cccc3F)cc12 [Compound 33, 5-(((5S,8R)-3-(2,6-difluorophenyl)-9,9-dimethyl-5,6,7,8-tetrahydro-5,8-methanocinnolin-8-yl)oxy)pyridin-2(1H)-one] |
| 7.7 nM | C[C@H](O)CNC(=O)N1CCC[C@H]([C@@]23CC[C@@H](c4cc(-c5c(F)cccc5F)nnc42)C3(C)C)C1 [Compound 151, 3-[5-(2,6-difluorophenyl)-11,11-dimethyl-3,4-diazatricyclo[6.2.1.02,7]undeca-2,4,6-trien-1-yl]-N-(2-hydroxypropyl)piperidine-1-carboxamide] |

Continued, compound first:

| SMILES | IC50 |
| --- | --- |
| CC[C@@H](O[C@@]12CC[C@@H](c3cc(-c4c(F)cccc4F)nnc31)C2(C)C)c1nnc(CO)o1 [Compound 32, (5-((R)-1-(((5S,8R)-3-(2,6-difluorophenyl)-9,9-dimethyl-5,6,7,8-tetrahydro-5,8-methanocinnolin-8-yl)oxy)propyl)-1,3,4-oxadiazol-2-yl)methanol] | 5.7 nM |
| CC1(C)[C@H]2CC[C@]1([C@H]1CCC(=O)NC1)c1nnc(-c3c(F)cccc3F)cc12 [Compound 92, (R)-5-((5R,8R)-3-(2,6-difluorophenyl)-9,9-dimethyl-5,6,7,8-tetrahydro-5,8-methanocinnolin-8-yl)piperidin-2-one] | 215 nM |
| CC[C@@H](O[C@@]12CC[C@@H](c3cc(-c4c(F)cccc4F)nnc31)C2(C)C)C(=O)NCCCO [Compound 105, (R)-2-(((5S,8R)-3-(2,6-difluorophenyl)-9,9-dimethyl-5,6,7,8-tetrahydro-5,8-methanocinnolin-8-yl)oxy)-N-(3-hydroxypropyl)butanamide] | 33.9 nM |
| CC1(C)[C@H]2CC[C@]1(Oc1cccnn1)c1nnc(-c3c(F)cccc3F)cc12 [Compound 16, (5S,8R)-3-(2,6-difluorophenyl)-9,9-dimethyl-8-(pyridazin-3-yloxy)-5,6,7,8-tetrahydro-5,8-methanocinnoline] | 254 nM |
| CC[C@H](O[C@@]12CC[C@@H](c3cc(-c4c(F)cccc4F)nnc31)C2(C)C)c1nnc(C)o1 [Compound 21, 2-((S)-1-(((5S,8R)-3-(2,6-difluorophenyl)-9,9-dimethyl-5,6,7,8-tetrahydro-5,8-methanocinnolin-8-yl)oxy)propyl)-5-methyl-1,3,4-oxadiazole] | 51 nM |
| CC1(C)[C@H]2CC[C@]1([C@H]1CCCN(C(=O)c3cc[nH]n3)C1)c1nnc(-c3c(F)cccc3F)cc12 [Compound 135, [3-[5-(2,6-difluorophenyl)-11,11-dimethyl-3,4-diazatricyclo[6.2.1.02,7]undeca-2,4,6-trien-1-yl]-1-piperidyl]-(1H-pyrazol-3-yl)methanone] | 6.7 nM |
| C[C@H](O)C(=O)N(C)[C@@]12CC[C@@H](c3cc(-c4c(F)cccc4F)nnc31)C2(C)C [Compound 1, (S)-N-((5R,8R)-3-(2,6-difluorophenyl)-9,9-dimethyl-5,6,7,8-tetrahydro-5,8-methanocinnolin-8-yl)-2-hydroxy-N-methylpropanamide] | 920 nM |
| CC1(C)[C@H]2CC[C@]1([C@H]1CCCN(c3cnccn3)C1)c1nnc(-c3c(F)cccc3F)cc12 [Compound 165, 5-(2,6-difluorophenyl)-11,11-dimethyl-1-(1-pyrazin-2-yl-3-piperidyl)-3,4-diazatricyclo[6.2.1.02,7]undeca-2,4,6-triene] | 24 nM |
| CC[C@@H](O[C@@]12CC[C@@H](c3cc(-c4c(F)cccc4F)nnc31)C2(C)C)C(=O)NC[C@H](C)O [Compound 51, (R)-2-(((5S,8R)-3-(2,6-difluorophenyl)-9,9-dimethyl-5,6,7,8-tetrahydro-5,8-methanocinnolin-8-yl)oxy)-N-((S)-2-hydroxypropyl)butanamide] | 61.5 nM |
| CC1(C)[C@H]2CC[C@]1(Oc1ccccc1)c1nnc(-c3c(F)cccc3F)cc12 [Compound 24, (5S,8R)-3-(2,6-difluorophenyl)-9,9-dimethyl-8-phenoxy-5,6,7,8-tetrahydro-5,8-methanocinnoline] | 14.4 nM |
| CC1(C)[C@H]2CC[C@]1([C@@H]1CN(C(=O)c3ccc(=O)[nH]n3)CCO1)c1nnc(-c3c(F)cccc3F)cc12 [Compound 89, 6-((R)-2-((5R,8R)-3-(2,6-difluorophenyl)-9,9-dimethyl-5,6,7,8-tetrahydro-5,8-methanocinnolin-8-yl)morpholine-4-carbonyl)pyridazin-3(2H)-one] | 237 nM |
| CC1(C)[C@H]2CC[C@]1([C@H]1CCCN(c3ccc(Cl)nn3)C1)c1nnc(-c3c(F)cccc3F)cc12 [Compound 170, 1-[1-(6-chloropyridazin-3-yl)-3-piperidyl]-5-(2,6-difluorophenyl)-11,11-dimethyl-3,4-diazatricyclo[6.2.1.02,7]undeca-2,4,6-triene] | 18 nM |
| COC(=O)N1CCO[C@@H]([C@@]23CC[C@@H](c4cc(-c5c(F)cccc5F)nnc42)C3(C)C)C1 [Compound 87, (S)-methyl 2-((5R,8R)-3-(2,6-difluorophenyl)-9,9-dimethyl-5,6,7,8-tetrahydro-5,8-methanocinnolin-8-yl)morpholine-4-carboxylate] | 36.8 nM |
| CC1(C)[C@H]2CC[C@]1([C@H]1CCCN(c3cccnn3)C1)c1nnc(-c3c(F)cccc3F)cc12 [Compound 169, 5-(2,6-difluorophenyl)-11,11-dimethyl-1-(1-pyridazin-3-yl-3-piperidyl)-3,4-diazatricyclo[6.2.1.02,7]undeca-2,4,6-triene] | 40 nM |
